Where a SMILES comes first, the peptide text is derived from it. Where no end group is shown, it is not given here. The star is where a group is joined. PEG 22kD = 22 kDa polyethylene glycol (on cysteine); Palmitoyl = CCCCCCCCCCCCCCCC(=O)*
Experiments:
[1] = target: T1, GLP-1 receptor (Rattus norvegicus, UniProt P32301); assay: Peptide signaling through GLP-1 receptor, cAMP scintillation proximity assay in RINm5F cells; type: cell-based; conditions: for GLP1 Relative Potency: EC50 of native GLP-1 (7-36) divided by EC50 of polypeptide x 100, cAMP in RINm5F cells; for % GLP1 max: maximal cAMP activity relative to native GLP-1 (7-36), RINm5F cells; for Emax: RIN-m5F, read-out: % GLP1 max
T1 construct: endogenous in cells; host or cells: RINm5F cells
T1 sequence (P32301 22-463): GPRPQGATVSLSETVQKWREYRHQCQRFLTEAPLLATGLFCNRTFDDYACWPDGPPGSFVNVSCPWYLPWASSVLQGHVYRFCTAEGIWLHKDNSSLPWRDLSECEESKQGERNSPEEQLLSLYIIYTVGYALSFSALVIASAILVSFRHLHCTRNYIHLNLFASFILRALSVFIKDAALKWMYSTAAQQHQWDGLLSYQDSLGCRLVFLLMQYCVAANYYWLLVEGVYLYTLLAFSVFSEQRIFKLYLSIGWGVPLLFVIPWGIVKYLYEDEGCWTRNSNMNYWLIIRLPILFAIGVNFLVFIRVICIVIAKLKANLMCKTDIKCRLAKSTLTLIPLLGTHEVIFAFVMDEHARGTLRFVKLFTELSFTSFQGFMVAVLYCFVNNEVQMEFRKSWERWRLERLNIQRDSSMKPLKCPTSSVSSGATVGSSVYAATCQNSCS
Method: The media was removed and the cells were washed twice with PBS. […] For assay of peptides conjugated with fatty acid, the BSA was omitted from the incubation buffer. The incubation buffer was removed, and the cells were lysed in the lysis reagent provided with the cAMP Scintillation Proximity Assay (SPA) direct screening assay system (Amersham Pharmacia Biotech Inc, Piscataway, N.J.). The amount of cAMP (in pmol) present in the lysates was determined following instructions provided with this kit.
The amount of cAMP (in pmol) produced at each concentration of peptide was plotted and analyzed by nonlinear regression using Prizm software to determine the EC50 for each peptide.

[2] = Intraperitoneal glucose tolerance testing (IPGTT) in rats or mice; type: in vivo; conditions: ipGTT in mice 3 hours post dosing with 100 μg/kg peptide
Method: Blood glucose levels during intraperitoneal glucose tolerance testing in rats or mice by some polypeptides of the invention were measured as follows. The in vivo activity of the polypeptides of the invention when administered subcutaneously was examined in rats or mice. Rats or mice fasted overnight were given a subcutaneous injection of control or peptide (100 μg/kg). Basal blood glucose was measured prior to administration of peptides or three or 17 hours after administration of derivatized peptides, and the rats or mice were given 2 g/kg of glucose intraperitoneally. Blood glucose was measured again after 15, 30 and 60 minutes in rats or 30 and 60 minutes in mice.

[3] = target: T1, GLP-1 receptor; assay: Competitive binding of peptide to the GLP-1 receptor in RINm5F cell plasma membranes (125I GLP-1); conditions: read-out: GLP1 RIN IC50
Method: Flasks of RINm5F cells were washed with PBS, scraped in 20 mM Hepes-1 mM EDTA-250 mM sucrose buffer containing protease inhibitors (HES) and homogenized in a dounce homogenizer followed by repeated resuspension through a 23 gauge needle. Unbroken cells and nuclei were removed by centrifugation at 500×g for 5 minutes. The pellet was resuspended in HES buffer using a 23 gauge needle and the centrifugation was repeated. The supernatants from the two spins were combined and centrifuged at 40,000×g for 20 min. The resulting plasma membrane pellet was resuspended in HES buffer using a 23 gauge needle followed by a 25 gauge needle. Membranes were stored at −80° C. until use.
(§1) Competitive binding of some polypeptides of the invention to RINm5F cell plasma membranes was measured as follows. Ninety-six-well GF/C filtration plates (Millipore, Bedford, Mass.) were blocked with 0.3% PEI for at least one hour and washed twice with binding buffer consisting of 20 mM Tris, 2 mM EDTA, pH 7.5, 1 mg/ml BSA, and 1 mg/ml bacitracin. […] The plates were dried, scintillant was added to each well, and cpm per well determined using a Wallac Microbeta counter.

[4] = target: T2, glucagon receptor (Rattus norvegicus, UniProt P30082); assay: Competitive binding of peptide to the glucagon receptor in rat liver plasma membranes (125I glucagon)
T2 construct: glucagon receptor present in the plasma membranes isolated from rat liver; from tissue; host or cells: rat liver plasma membranes
Method: The wet weight of the livers was determined and the tissue minced in 5 volumes of ice cold TES buffer and a slurry prepared using a polytron. All buffers and spins were kept at 4° C. The slurry was further homogenized using three strokes of a handheld dounce homogenizer. The homogenate was passed through several layers of cheesecloth and spun at 25,000×g for 10 minutes. Pellets were homogenized in 22.1 ml TES buffer using 10 strokes of a handheld dounce homogenizer. Twenty-seven point nine milliliters of 2.4 M sucrose in TE was added and mixed well. The homogenate was distributed among several tubes, and each tube was overlaid with 7 ml of TES buffer. The tubes were spun at 120,000×g for 60 minutes. The plasma membranes were removed from the interface that formed during the spin, diluted in TES and concentrated using a 15 minute spin at 200,000×g. The resulting pellet was again homogenized in 9.8 ml TES buffer, combined with 10.3 ml 2.4M sucrose, overlaid with 7 ml TES, and centrifuged at 180,000×g for 30 min. […] The final pellet was resuspended in TES. Plasma membranes were stored at −80° C. until ready for use.
as §1, with “rat liver” for “RINm5F cell”, “0.1%” for “0.3%”

T2 sequence (P30082 27-485): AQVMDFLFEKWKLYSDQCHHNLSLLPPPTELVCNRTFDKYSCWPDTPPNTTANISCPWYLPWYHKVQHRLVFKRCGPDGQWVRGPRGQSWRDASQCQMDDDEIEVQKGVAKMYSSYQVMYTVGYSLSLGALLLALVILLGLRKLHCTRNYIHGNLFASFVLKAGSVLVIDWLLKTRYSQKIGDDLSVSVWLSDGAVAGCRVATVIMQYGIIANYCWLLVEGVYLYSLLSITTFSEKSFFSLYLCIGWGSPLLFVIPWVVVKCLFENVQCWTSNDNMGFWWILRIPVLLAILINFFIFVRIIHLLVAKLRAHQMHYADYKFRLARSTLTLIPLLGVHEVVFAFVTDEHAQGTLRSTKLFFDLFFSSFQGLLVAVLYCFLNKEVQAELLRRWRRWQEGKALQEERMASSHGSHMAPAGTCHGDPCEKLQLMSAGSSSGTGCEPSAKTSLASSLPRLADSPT

HSQGTFTSDYAKYLDARRAKEFIAWLVKGRC(22kD) (HSQGTFTSDYAKYLDARRAKEFIAWLVKGRC(PEG 22kD); listed as Homo sapiens) [G277, 22kD PEG linked to the cysteine residue]
GLP1 Relative Potency [1]: 1.8% | % GLP1 max [1]: 93.7% | In vivo Decrease IpGTT AUC [2]: 46%

HSQGTFTSDYARYLDAAKAKEFIAWLVKGRG [G61]
IC50 [3]: 10.6 nM | IC50 [4]: 232 nM | GLP1 Relative Potency [1]: 12.1% | Emax [1]: 96%

HSQGTFTSDYSKYLEGQAAKEFIAWLVKGR-NH2 [G5]
IC50 [3]: 0.5 nM | IC50 [4]: 243 nM | GLP1 Relative Potency [1]: 69.9% | Emax [1]: 109%

HSQGTFTSDYARYLDARRAREFIAWLVRGRGK [G85]
IC50 [3]: 1.5 nM | IC50 [4]: 16.1 nM | GLP1 Relative Potency [1]: 64.5% | Emax [1]: 95.8%

HSQGTFTSDYARYLDARRAKEFIAWLVRGRG [G82]
IC50 [3]: 8.1 nM | IC50 [4]: 33.6 nM | GLP1 Relative Potency [1]: 29.9% | Emax [1]: 97.1%

HSQGTFTSDYARYLDARRAREFIKWLVRGRG [G83]
IC50 [3]: 3.2 nM | IC50 [4]: 28.6 nM | GLP1 Relative Potency [1]: 29.9% | Emax [1]: 89.4%

CC(C)C[C@H](NC(=O)[C@H](Cc1ccc(O)cc1)NC(=O)[C@H](CCCCN)NC(=O)[C@H](CO)NC(=O)[C@H](Cc1ccc(O)cc1)NC(=O)[C@H](CC(=O)O)NC(=O)[C@H](CO)NC(=O)[C@@H](NC(=O)[C@H](Cc1ccccc1)NC(=O)[C@@H](NC(=O)CNC(=O)[C@H](CCC(N)=O)NC(=O)[C@H](CO)NC(=O)[C@@H](N)Cc1c[nH]cn1)[C@@H](C)O)[C@@H](C)O)C(=O)N[C@@H](CC(=O)O)C(=O)N[C@@H](CO)C(=O)N[C@@H](CCCNC(=N)N)C(=O)N[C@@H](CCCNC(=N)N)C(=O)N[C@@H](C)C(=O)N[C@@H](CCC(N)=O)C(=O)N[C@@H](CC(=O)O)C(=O)N[C@@H](Cc1ccccc1)C(=O)N[C@H](C(=O)N[C@@H](CCC(N)=O)C(=O)N[C@@H](Cc1c[nH]c2ccccc12)C(=O)N[C@@H](CC(C)C)C(=O)N[C@H](C(=O)N[C@@H](CCCCN)C(=O)NCC(=O)N[C@@H](CCCNC(=N)N)C(N)=O)C(C)C)C(C)C [G1]
IC50 [3]: 6 nM | IC50 [4]: 6.6 nM | GLP1 Relative Potency [1]: 6.9% | Emax [1]: 112%

HSQGTFTSDYAKYLDAAKAKEFIAWLVKGRG [G60]
IC50 [3]: 13.8 nM | IC50 [4]: 682 nM | GLP1 Relative Potency [1]: 22.3% | Emax [1]: 95.7%

CCCCCCCCCCCCCCCC(=O)NCCCC[C@H](NC(=O)[C@H](C)NC(=O)[C@H](CCCNC(=N)N)NC(=O)[C@H](CCCNC(=N)N)NC(=O)[C@H](C)NC(=O)[C@H](CC(=O)O)NC(=O)[C@H](CC(C)C)NC(=O)[C@H](Cc1ccc(O)cc1)NC(=O)[C@H](CCCNC(=N)N)NC(=O)[C@H](C)NC(=O)[C@H](Cc1ccc(O)cc1)NC(=O)[C@H](CC(=O)O)NC(=O)[C@H](CO)NC(=O)[C@@H](NC(=O)[C@H](Cc1ccccc1)NC(=O)[C@@H](NC(=O)CNC(=O)[C@H](CCC(N)=O)NC(=O)[C@H](CO)NC(=O)[C@@H](N)Cc1c[nH]cn1)[C@@H](C)O)[C@@H](C)O)C(=O)N[C@@H](CCC(=O)O)C(=O)N[C@@H](Cc1ccccc1)C(=O)N[C@H](C(=O)N[C@@H](CCCCN)C(=O)N[C@@H](Cc1c[nH]c2ccccc12)C(=O)N[C@@H](CC(C)C)C(=O)N[C@H](C(=O)N[C@@H](CCCNC(=N)N)C(=O)NCC(=O)N[C@@H](CCCNC(=N)N)C(=O)NCC(=O)O)C(C)C)[C@@H](C)CC [G183] (H-HSQGTFTSDYARYLDARRAK(Palmitoyl)EFIKWLVRGRG-OH; N-terminus and C-terminus assumed)
GLP1 Relative Potency [1]: 0.6% | Emax [1]: 90.5% | In vivo Decrease IpGTT AUC [2]: 27%

HSQGTFTSDYAKYLDAKKAKEFIAWLVKGRG [G58]
IC50 [3]: 6.9 nM | IC50 [4]: 163 nM | GLP1 Relative Potency [1]: 76.1% | Emax [1]: 99%

HSQGTFTSDYAKYLDAARAKEFIAWLVKGR-NH2 [G57]
IC50 [3]: 14.7 nM | IC50 [4]: 178 nM | GLP1 Relative Potency [1]: 18.3% | Emax [1]: 132%

HSQGTFTSDYAKYLDARRAKEFIAWLVCGRG [G74]
IC50 [3]: 4.4 nM | IC50 [4]: 21.7 nM | GLP1 Relative Potency [1]: 8.4% | Emax [1]: 88.7%

HSQGTFTSDYARYLDARRAKEFIAWLVKGR-NH2 [G55]
IC50 [3]: 9.8 nM | IC50 [4]: 139 nM | GLP1 Relative Potency [1]: 18.6% | Emax [1]: 116%

HSQGTFTSDYARYLDARRAREFIAWLVKGRG [G84]
IC50 [3]: 1.4 nM | IC50 [4]: 11.7 nM | GLP1 Relative Potency [1]: 61.8% | Emax [1]: 114%

HSQGTFTSDYAKYLDARRAKEFIAWLVKCRG [G75]
IC50 [3]: 7.7 nM | IC50 [4]: 54 nM | GLP1 Relative Potency [1]: 6.6% | Emax [1]: 86.1%

HSQGTFTSDYARYLDARRAREFIKWLVRGRC(22kD) (HSQGTFTSDYARYLDARRAREFIKWLVRGRC(PEG 22kD); listed as Homo sapiens) [G2185, 22kD PEG linked to the cysteine residue]
GLP1 Relative Potency [1]: 6.2% | % GLP1 max [1]: 112.7% | In vivo Decrease IpGTT AUC [2]: 44%

HSQGTFTSDYAKYLDARRAKEFIAWLVKGRC [G77]
IC50 [3]: 8.9 nM | IC50 [4]: 61.1 nM | GLP1 Relative Potency [1]: 9.5% | Emax [1]: 92.1%

HSQGTFTSDYAKYLDARRAKEFIAWLVKGCG [G76]
IC50 [3]: 10.2 nM | IC50 [4]: 59.1 nM | GLP1 Relative Potency [1]: 7.7% | Emax [1]: 85%

HSQGTFTSDYAKYLDARRAKEFIAWLVKGRG [G51]
IC50 [3]: 8.2 nM | IC50 [4]: 154 nM | GLP1 Relative Potency [1]: 58.1% | Emax [1]: 91.2%

HSQGTFTSDYAAYLDARRAKEFIAWLVKGR-NH2 [G56]
IC50 [3]: 6.6 nM | IC50 [4]: 125 nM | GLP1 Relative Potency [1]: 37.2% | Emax [1]: 115%

HSQGTFTSDYARYLDARRAREFIKWLVRGRC [G185]
IC50 [3]: 4.5 nM | IC50 [4]: 48 nM | GLP1 Relative Potency [1]: 13.0% | Emax [1]: 104%

HSQGTFTSDYAKYLDARRACEFIAWLVKGRG [G71]
IC50 [3]: 5.8 nM | IC50 [4]: 25.6 nM | GLP1 Relative Potency [1]: 4.3% | Emax [1]: 93.3%

HSQGTFTSDYARYLDAKKAKEFIAWLVKGRG [G59]
IC50 [3]: 2.1 nM | IC50 [4]: 97.5 nM | GLP1 Relative Potency [1]: 22.7% | Emax [1]: 102%

Source: patent publication US7488716B2 (priority 2001, dated 2009)
